Test results from US9145372B2, “Pyridazine derivatives, compositions and methods for treating cognitive impairment” (AGENEBIO, INC., priority 2010, dated 2015).
Entries after “also recorded” stand apart in the source; their conditions may differ.

Columns and labels:
GABAA α5 receptor = GABAA α5 receptor (Rattus norvegicus, UniProt P18508+P19969); experiment: GABAA α5 receptor occupancy in vivo with Ro 15-4513 tracer (hippocampus vs cerebellum)
Excerpt: Adult male Long Evans rats (265-295 g, Charles River, Portage, Mich., n=4/group) were used for GABAA α5 receptor occupancy studies. Rats were individually housed in ventilated stainless-steel racks on a 12:12 light/dark cycle. Food and water were available ad libitum.
Ro 15-4513 was used as a receptor occupancy (RO) tracer for GABAA α5 receptor sites in the hippocampus and cerebellum. Ro 15-4513 was chosen as the tracer based on its selectivity for GABAA α5 receptors relative to other alpha subunit containing GABAA receptors and because it has been successfully used for GABAA α5 RO studies in animals and humans (see, e.g., Lingford-Hughes et al., J. Cereb. Blood Flow Metab. 22:878-89 (2002); Pym et al, Br. J. Pharmacol. 146: 817-825 (2005); and Maeda et al., Synapse 47: 200-208 (2003)). Ro 15-4513 (1 μg/kg), was dissolved in 25% hydroxyl-propyl beta-cyclodextrin and administered i.v. 20′ prior to the RO evaluations. Methyl 3,5-diphenylpyridazine-4-carboxylate (0.1-10 mg/kg) was synthesized by Nox Pharmaceuticals (India) and was dissolved in 25% hydroxyl-propyl beta-cyclodextrin and administered i.v. 15′ prior to tracer injection.
The rats were sacrificed by cervical dislocation 20′ post tracer injection. The whole brain was rapidly removed, and lightly rinsed with sterile water. Trunk blood was collected in EDTA coated eppendorf tubes and stored on wet ice until study completion. Hippocampus and cerebellum were dissected and stored in 1.5 ml eppendorf tubes, and placed on wet ice until tissue extraction. In a drug naïve rat, six cortical brain tissues samples were collected for use in generating blank and standard curve samples.
Acetonitrile containing 0.1% formic acid was added to each sample at a volume of four times the weight of the tissue sample. For the standard curve (0.1-30 ng/g) samples, a calculated volume of standard reduced the volume of acetonitrile. The sample was homogenized (FastPrep-24, Lysing Matrix D; 5.5 m/s, for 60 seconds or 7-8 watts power using sonic probe dismembrator; Fisher Scientific) and centrifuged for 16-minutes at 14,000 rpm. The (100 μl) supernatant solution was diluted by 300 μl of sterile water (pH 6.5). This solution was then mixed thoroughly and analyzed via LC/MS/MS for […] (tracer) and methyl 3,5-diphenylpyridazine-4-carboxylate.
Receptor occupancy was determined by the ratio method which compared occupancy in the hippocampus (a region of high GABAA α5 receptor density) with occupancy in the cerebellum (a region with low GABAA α5 receptor density) and additionally by a high dose of the GABAA α5 negative allosteric modulator L-655,708 (10 mg/kg, i.v.) to define full occupancy.

α5-containing GABAA R = target: T1, α5-containing GABAA R (Homo sapiens, UniProt P18507+P31644); details: at GABA EC20; van Niel et al.; cited from earlier work
T1 sequence (P31644 32-462): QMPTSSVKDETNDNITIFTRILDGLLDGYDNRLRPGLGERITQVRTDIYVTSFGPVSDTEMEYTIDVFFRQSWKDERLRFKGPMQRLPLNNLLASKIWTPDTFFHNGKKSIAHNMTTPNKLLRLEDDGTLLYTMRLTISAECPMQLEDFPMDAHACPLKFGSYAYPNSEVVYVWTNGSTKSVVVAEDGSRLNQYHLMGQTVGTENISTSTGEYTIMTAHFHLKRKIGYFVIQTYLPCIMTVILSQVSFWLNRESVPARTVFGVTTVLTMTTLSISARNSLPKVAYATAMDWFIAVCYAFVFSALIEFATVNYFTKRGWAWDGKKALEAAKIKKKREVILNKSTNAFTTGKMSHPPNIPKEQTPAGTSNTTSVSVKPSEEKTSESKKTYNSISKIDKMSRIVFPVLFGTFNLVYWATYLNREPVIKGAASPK
T1 sequence (P28472 26-473 partner): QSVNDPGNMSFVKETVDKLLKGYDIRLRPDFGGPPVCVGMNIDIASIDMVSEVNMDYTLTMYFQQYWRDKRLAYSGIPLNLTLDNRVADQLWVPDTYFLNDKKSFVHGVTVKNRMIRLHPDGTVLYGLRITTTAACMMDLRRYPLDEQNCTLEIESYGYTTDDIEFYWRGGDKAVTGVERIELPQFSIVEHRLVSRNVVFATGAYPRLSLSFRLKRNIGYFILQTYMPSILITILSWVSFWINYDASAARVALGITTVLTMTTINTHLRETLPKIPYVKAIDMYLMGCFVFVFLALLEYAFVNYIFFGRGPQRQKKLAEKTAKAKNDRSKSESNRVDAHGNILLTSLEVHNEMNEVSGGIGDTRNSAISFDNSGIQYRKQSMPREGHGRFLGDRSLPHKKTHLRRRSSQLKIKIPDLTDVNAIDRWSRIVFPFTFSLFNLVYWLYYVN
T1 sequence (P18507 40-467 limits assumed): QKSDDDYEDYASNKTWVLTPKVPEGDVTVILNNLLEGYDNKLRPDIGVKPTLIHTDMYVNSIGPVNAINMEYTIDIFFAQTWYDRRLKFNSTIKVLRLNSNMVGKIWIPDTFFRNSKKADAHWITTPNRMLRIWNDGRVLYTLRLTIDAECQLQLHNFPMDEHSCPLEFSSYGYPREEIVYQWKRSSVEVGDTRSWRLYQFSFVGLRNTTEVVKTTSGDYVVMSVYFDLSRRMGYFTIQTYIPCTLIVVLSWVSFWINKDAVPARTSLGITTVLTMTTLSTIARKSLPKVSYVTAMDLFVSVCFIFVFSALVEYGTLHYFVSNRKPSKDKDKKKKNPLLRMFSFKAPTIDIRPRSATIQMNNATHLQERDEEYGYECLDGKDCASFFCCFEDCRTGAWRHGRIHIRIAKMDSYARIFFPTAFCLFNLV

Chain of GABAA α5 receptor (P19969 32-464 limits assumed): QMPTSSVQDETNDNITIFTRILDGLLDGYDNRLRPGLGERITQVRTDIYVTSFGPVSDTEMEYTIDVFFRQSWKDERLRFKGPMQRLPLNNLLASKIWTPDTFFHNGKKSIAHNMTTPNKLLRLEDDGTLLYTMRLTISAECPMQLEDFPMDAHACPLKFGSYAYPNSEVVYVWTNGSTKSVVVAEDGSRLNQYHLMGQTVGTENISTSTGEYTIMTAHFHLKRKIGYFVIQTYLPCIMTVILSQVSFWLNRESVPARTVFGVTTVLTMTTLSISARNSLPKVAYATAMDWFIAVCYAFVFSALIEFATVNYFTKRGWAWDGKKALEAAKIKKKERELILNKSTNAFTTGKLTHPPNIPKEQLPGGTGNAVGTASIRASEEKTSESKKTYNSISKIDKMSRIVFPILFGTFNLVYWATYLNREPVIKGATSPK
Chain of GABAA α5 receptor (P18508 39-466): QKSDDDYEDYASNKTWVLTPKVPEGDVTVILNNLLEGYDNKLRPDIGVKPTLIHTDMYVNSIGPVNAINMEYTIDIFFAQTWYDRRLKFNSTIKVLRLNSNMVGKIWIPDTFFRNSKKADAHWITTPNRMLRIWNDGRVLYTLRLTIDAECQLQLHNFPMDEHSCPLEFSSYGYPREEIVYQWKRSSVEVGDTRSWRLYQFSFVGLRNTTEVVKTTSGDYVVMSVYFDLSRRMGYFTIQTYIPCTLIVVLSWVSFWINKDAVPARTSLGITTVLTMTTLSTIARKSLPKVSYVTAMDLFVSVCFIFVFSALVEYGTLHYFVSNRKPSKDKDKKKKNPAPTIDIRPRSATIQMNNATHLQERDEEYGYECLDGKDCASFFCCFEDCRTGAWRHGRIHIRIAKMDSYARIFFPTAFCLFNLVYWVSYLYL
Chain of GABAA α5 receptor (P63079 26-473 partner): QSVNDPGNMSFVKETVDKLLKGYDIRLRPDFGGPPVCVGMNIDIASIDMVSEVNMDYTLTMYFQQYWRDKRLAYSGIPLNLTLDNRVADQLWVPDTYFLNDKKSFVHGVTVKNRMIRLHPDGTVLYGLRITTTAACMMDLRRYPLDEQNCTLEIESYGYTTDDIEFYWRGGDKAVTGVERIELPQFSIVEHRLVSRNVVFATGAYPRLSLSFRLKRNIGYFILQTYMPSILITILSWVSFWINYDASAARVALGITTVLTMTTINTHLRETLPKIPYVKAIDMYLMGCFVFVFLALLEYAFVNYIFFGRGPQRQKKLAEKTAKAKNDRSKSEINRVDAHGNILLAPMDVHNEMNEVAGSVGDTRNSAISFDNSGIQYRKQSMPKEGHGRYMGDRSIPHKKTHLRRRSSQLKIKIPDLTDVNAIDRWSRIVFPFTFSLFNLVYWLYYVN

With `COC(=O)c1c(-c2ccccc2)cnnc1-c1ccccc1` [methyl 3,5-diphenylpyridazine-4-carboxylate] the “Ro 15-4513 binding in hippocampus” value (GABAA α5 receptor; 0.01-10 mg/kg, i.v.) was “blocked; also recorded: dose-dependently reduced”, the “cerebellum levels (binding) of Ro 15-4513” value (GABAA α5 receptor; 0.01-10 mg/kg, i.v.) was “did not affect; also recorded: without affecting” and the “GABAA α5 receptors occupied at exposures behaviorally active in aged-impaired rats” value (GABAA α5 receptor; hippocampus, FIG. 5) was “about 32%”. The “ED50 of receptor occupancy, ratio method” value (GABAA α5 receptor; i.v., hippocampus/cerebellum ratio method) was 1.8 mg/kg, the receptor occupancy at 10 mg/kg (GABAA α5 receptor; rat, iv, read-out: GABAA α5 receptor occupancy) was greater than 90% and the receptor occupancy at 1 mg/kg (GABAA α5 receptor; rat, iv, read-out: receptor occupancy at an exposure of 180 ng/g in hippocampus) was 32 to 39%. For the same compound, the “α5 in vitro efficacy (EC20)” value (α5-containing GABAA R) was “+27”.
